Test systems include DU-145; HCC 2998; HCT-15; IGROV-1; M14; MCF7; Malme-3M; NCI-H522; NCI/ADR-RES; OVCAR-5; OVCAR-8; SF-268; SK-MEL-5; SK-OV-3; SN12C; SW-620; T47D; UACC-62; UO-31.
What all share (assay): NCI anticancer screen, dose series, 48 h

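How tested: cells in 96-well plates exposed to compound for 48 hours at five concentrations. The concentration for 50% growth inhibition is given as GI50.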 Activity calls are given as the source filed them. Cut-off read from the data, not from the text of the source: active = GI50 up to about 1.1 µM and inactive = higher.

On to `CCCCCC(=O)OCC(=O)[C@H]1[C@H](C)C[C@H]2[C@@H]3C[C@H](F)C4=C/C(=N/OC(=O)c5cccc6c(=O)c7ccccc7[nH]c56)C=C[C@]4(C)[C@H]3[C@@H](O)C[C@@]21C`, for which the GI50 in the assay with DU-145 was 39.4 µM (inactive); in the assay on HCC 2998 it was 24.7 µM (inactive); in the assay on HCT-15, 26.6 µM; in the assay on IGROV-1, 25.2 µM (inactive); in the assay on M14 it was 28.6 µM (inactive); with MCF7 it was 21.9 µM (inactive). In addition, the GI50 with Malme-3M is 12.5 µM (inactive); with NCI-H522 it was 14.3 µM (inactive); with NCI/ADR-RES, 11.2 µM (inactive); in the assay with OVCAR-5 it was 32.8 µM (inactive); in the assay on OVCAR-8 it was 10.8 µM (inactive); in the assay on SF-268 it was 53.8 µM (inactive). The GI50 was 14.7 µM (inactive) with SK-MEL-5; 24.8 µM (inactive) in the assay on SK-OV-3; 20 µM (inactive) in the assay with SN12C; 28.2 µM (inactive) in the assay on SW-620; 19 µM (inactive) in the assay with T47D; 16.7 µM (inactive) in the assay with UACC-62. Further, in the assay on UO-31, the GI50 was 16 µM (inactive).

Regarding `COc1ccc2c(c1)-c1c(c3cc(OC)ccc3n1CCCN(C)C)CC2`, the GI50 in the assay with DU-145 is 16.2 µM (inactive); in the assay with HCC 2998 it was 3.13 µM (inactive); with HCT-15, 11.4 µM; in the assay on IGROV-1, 2.93 µM (inactive); with M14 it was 2.03 µM (inactive); in the assay on MCF7 it was 7.83 µM (inactive). The GI50 in the assay with Malme-3M was 2.28 µM (inactive); in the assay on NCI-H522, 9.91 µM (inactive); in the assay with NCI/ADR-RES it was 12.7 µM (inactive); in the assay with OVCAR-5, 13.8 µM (inactive); in the assay with OVCAR-8, 13.7 µM (inactive); in the assay with SF-268, 10.7 µM (inactive). For the same molecule, the GI50 in the assay with SK-MEL-5 was 2.68 µM (inactive); with SK-OV-3, 16.2 µM (inactive); in the assay on SN12C, 12 µM (inactive); in the assay on SW-620, 11.1 µM (inactive); in the assay with T47D it was 5.36 µM (inactive); in the assay on UACC-62, 6.98 µM (inactive). In addition, the GI50 in the assay on UO-31 is 10.8 µM (inactive).

With `Cc1ccc(/C=C2\NC(=S)NC2=O)cc1`, the GI50 is > 100 µM (inactive) in the assay with DU-145; > 100 µM (inactive) with HCC 2998; over 100 µM in the assay on HCT-15; > 100 µM (inactive) with IGROV-1; > 100 µM (inactive) with M14; > 100 µM (inactive) with MCF7. Moreover, the GI50 with Malme-3M, in the assay on NCI-H522, in the assay on NCI/ADR-RES, with OVCAR-5, in the assay with OVCAR-8 and with SF-268 was > 100 µM (inactive) in each case. Moreover, the GI50 in the assay with SK-MEL-5, in the assay with SK-OV-3, in the assay on SN12C, in the assay on SW-620, in the assay with T47D and in the assay with UACC-62 was > 100 µM (inactive) in each case. Besides, the GI50 in the assay with UO-31 was > 100 µM (inactive).

In the case of `O=C(Nc1noc(-c2ccccc2)n1)c1ccccc1CNc1noc(-c2ccccc2)n1`, the GI50 with DU-145 is > 100 µM (inactive); in the assay on HCC 2998, > 100 µM (inactive); in the assay on HCT-15 it was over 100 µM; in the assay on IGROV-1, > 100 µM (inactive); in the assay with M14, > 100 µM (inactive); with MCF7, > 100 µM (inactive). In addition, the GI50 in the assay on Malme-3M, in the assay on NCI-H522, in the assay on NCI/ADR-RES, with OVCAR-5, with OVCAR-8 and in the assay with SF-268 was > 100 µM (inactive) in each case. The GI50 in the assay on SK-MEL-5, with SK-OV-3, with SN12C, in the assay with SW-620, in the assay with T47D and with UACC-62 was > 100 µM (inactive) throughout. Besides, the GI50 in the assay on UO-31 was > 100 µM (inactive).

For the molecule `COc1ccc(N2C(=O)C3c4[nH]c5ccc(OC)cc5c4C4CCC(c5ccccc5)CC4C3C2=O)cc1` (configuration not stated), the GI50 in the assay on DU-145 is 29.9 µM (inactive); with HCC 2998, 8.69 µM (inactive); with HCT-15, 31.3 µM; in the assay on IGROV-1, 16.1 µM (inactive); in the assay on M14, 14.8 µM (inactive); with MCF7, 19.6 µM (inactive). The GI50 with Malme-3M was 11.4 µM (inactive); in the assay on NCI-H522 it was 7.89 µM (inactive); in the assay on NCI/ADR-RES it was 12.6 µM (inactive); in the assay with OVCAR-5, 20.6 µM (inactive); in the assay on OVCAR-8, 7.48 µM (inactive); in the assay with SF-268, 8.63 µM (inactive). Further, the GI50 was 22.4 µM (inactive) in the assay on SK-MEL-5; 12.2 µM (inactive) in the assay on SK-OV-3; 6.15 µM (inactive) in the assay on SN12C; 3.82 µM (inactive) in the assay with SW-620; 20.1 µM (inactive) with T47D; 15.1 µM (inactive) in the assay with UACC-62. Moreover, in the assay with UO-31, the GI50 was 29.6 µM (inactive).

Consider `CC(=O)O[C@H]1CC[C@@]2(C)[C@@H](CC[C@@H]3[C@@H]2CC(=O)[C@@]2(C)[C@H]3C[C@@H]3CC(C)=CC(=O)[C@@H]32)C1`, for which the GI50 in the assay with DU-145 is 53.8 µM (inactive); with HCC 2998, 71.3 µM (inactive); in the assay on HCT-15 it was 98.2 µM; in the assay on IGROV-1 it was > 100 µM (inactive); with M14, 29.7 µM (inactive); in the assay on MCF7, 58.3 µM (inactive). Moreover, the GI50 in the assay with Malme-3M was 40.6 µM (inactive); in the assay on NCI-H522, 39.5 µM (inactive); in the assay on NCI/ADR-RES, 59 µM (inactive); in the assay with OVCAR-5, > 100 µM (inactive); with OVCAR-8, 59.7 µM (inactive); with SF-268 it was 36.2 µM (inactive). In addition, the GI50 with SK-MEL-5 was 40.9 µM (inactive); with SK-OV-3, > 100 µM (inactive); in the assay on SN12C, 41 µM (inactive); in the assay on SW-620, > 100 µM (inactive); in the assay with T47D, 40 µM (inactive); with UACC-62, 64.7 µM (inactive). Besides, the GI50 with UO-31 was 23.2 µM (inactive).

For the molecule `COC(=O)c1c(OC(C)=O)ccc2c1c1c(OC(C)=O)c3ccccc3c(OC(C)=O)c1n2Cc1cc(OC)cc(OC)c1`, the GI50 is 38.5 µM (inactive) with DU-145; 2.56 µM (inactive) in the assay with HCC 2998; 4.32 µM with HCT-15; 9.1 µM (inactive) in the assay with IGROV-1; 5.11 µM (inactive) in the assay on M14; 26.1 µM (inactive) in the assay on MCF7. For the same molecule, the GI50 with Malme-3M was 12 µM (inactive); in the assay with NCI-H522, 3.06 µM (inactive); in the assay with NCI/ADR-RES, 5.78 µM (inactive); in the assay on OVCAR-5 it was > 100 µM (inactive); in the assay with OVCAR-8, 4.93 µM (inactive); with SF-268, 5.09 µM (inactive). Besides, the GI50 in the assay on SK-MEL-5 is 4.06 µM (inactive); in the assay on SK-OV-3, 9.68 µM (inactive); in the assay on SN12C, 45.7 µM (inactive); in the assay on T47D, 3.82 µM (inactive); in the assay with UACC-62, 4.41 µM (inactive); in the assay with UO-31, 6.76 µM (inactive).

Regarding `O=C(O)COc1cc(-c2ccccc2)nc2cc(F)ccc12`, the GI50 with DU-145 was > 100 µM (inactive); in the assay on HCC 2998, 60 µM (inactive); in the assay with HCT-15, over 100 µM; in the assay with IGROV-1, > 100 µM (inactive); with M14, > 100 µM (inactive); with MCF7 it was > 100 µM (inactive). Moreover, the GI50 in the assay on Malme-3M, in the assay with NCI-H522, with NCI/ADR-RES, with OVCAR-5, with OVCAR-8 and in the assay on SF-268 was > 100 µM (inactive) in each case. Further, the GI50 with SK-MEL-5, in the assay on SK-OV-3, with SN12C, with SW-620, in the assay on T47D and with UACC-62 was > 100 µM (inactive) in each case. For the same molecule, the GI50 with UO-31 is 64.7 µM (inactive).

As to `Cc1c2ccccc2c(C)n2c1nc1cc3ccccc3cc12`, the GI50 in the assay with DU-145 is 1.3 µM (inactive); with HCC 2998, 1.78 µM (inactive); in the assay with HCT-15, 1.36 µM; with IGROV-1, 1.04 µM (active); in the assay with M14, 1.38 µM (inactive); in the assay with MCF7, 0.321 µM (active). The GI50 with Malme-3M was 1.28 µM (inactive); with NCI-H522, 1.74 µM (inactive); in the assay with NCI/ADR-RES it was 0.897 µM (active); in the assay on OVCAR-5, 1.02 µM (active); with OVCAR-8, 1.04 µM (active); in the assay on SF-268, 1.34 µM (inactive). Further, the GI50 is 1.94 µM (inactive) with SK-MEL-5; 2.45 µM (inactive) in the assay with SK-OV-3; 1.79 µM (inactive) in the assay on SN12C; 1.56 µM (inactive) in the assay with SW-620; 6.44 µM (inactive) in the assay on T47D; 1.49 µM (inactive) in the assay on UACC-62.

Take `CC(C)CN1CN(c2ccccc2)C2(CCN(CC(C)(c3ccc(F)cc3)C3OCCO3)CC2)C1=O` (configuration not stated): the GI50 is 4.1 µM (inactive) in the assay with DU-145; 2.39 µM (inactive) with HCC 2998; 3.27 µM with HCT-15; 2.36 µM (inactive) in the assay with M14; 4.11 µM (inactive) in the assay with MCF7; 4.89 µM (inactive) in the assay with Malme-3M. Besides, the GI50 with NCI-H522 is 3.96 µM (inactive); in the assay with NCI/ADR-RES it was 7.41 µM (inactive); in the assay on OVCAR-5, 13 µM (inactive); with OVCAR-8, 10.1 µM (inactive); in the assay on SF-268 it was 8.39 µM (inactive); in the assay on SK-MEL-5, 2.02 µM (inactive). Moreover, the GI50 is 3.89 µM (inactive) with SK-OV-3; 5.75 µM (inactive) with SN12C; 3.17 µM (inactive) with SW-620; 2.75 µM (inactive) in the assay with T47D; 6.92 µM (inactive) in the assay on UACC-62; 2.7 µM (inactive) with UO-31.
